Patent publication US10258687B2, “Development of methods for production of a whole virus vaccine candidate stock and novel adaptive mutations in hepatitis C virus” (Hvidovre Hospital, priority 2014, dated 2019)
Where “and” joins values, the source holds several entries; their conditions need not be identical. Equal values may be shown once. Where a name gives a salt, the structure may show the parent alone.

What was measured:
[1] = test system: clathrin-mediated endocytosis; experiment: Chlorpromazine inhibition of HCVcc and sf-HCVcc entry; format: cell-based, Human; details: genotype 1-6 HCVcc and sf-HCVcc, cells pre-treated, up to 10 μg/mL
Experimental: FIG. 11: Effect of chlorpromazine treatment on HCVcc and sf-HCVcc entry. (A-G) Chlorpromazine was diluted in DMEM+10% FBS to the concentrations indicated and then added to Huh7.5 cells, plated the previous day onto poly-D-lysine coated 96-well plates, and incubated for 30 minutes. HCVcc (black bars) were diluted in DMEM+10% FBS and sf-HCVcc (grey bars) were diluted in AEM+10% FBS and added to cultures. After 6 hours incubation, chlorpromazine-virus mixes were removed and DMEM+10% FBS was added. Cells were fixed 48 hours post infection and stained, and the number of single HCV NS5A positive cells per well was determined by automated counting as described in Materials and Methods. The HCV Core-E2 sequences of all virus stocks used were determined by direct sequencing. Sequences were identical for HCVcc and sf-HCVcc of the same recombinant. Compared to the plasmid sequence, H77(1a) viruses had acquired amino acid change I348S and J4(1b) had acquired amino acid change V710L, both estimated to be present in the majority of viral genomes. The % blocking was calculated by relating counts of experimental wells to the mean count of six replicate wells with untreated control virus. […] The % viability was calculated by relating absorbance at 490 nm determined for chlorpromazine treated cultures to the mean absorbance of three replicate untreated cultures. […]

Huh7.5 cells [2] = experiment: Chlorpromazine cytotoxicity (cell viability assay); format: cell-based, Human; details: 6 hours treatment
Experimental: For determination of Huh7.5 cell viability in DMEM+10% FBS versus AEM, we plated 6,000 cells per well of poly-D-lysine coated 96-well plates in DMEM+10% FBS. The following day, medium was removed and cells were incubated in DMEM+10% FBS or AEM for 48 hours. Then, cell viability was determined using the CellTiter 96® AQueous One Solution Cell Proliferation Assay kit (Promega) according to the manufacturer's instructions. The % viability was calculated by relating absorbance at 490 nm determined for 10 AEM cultures to the mean absorbance of 10 replicate DMEM+10% FBS cultures. For determination of chlorpromazine cytotoxicity, chlorpromazine was diluted in DMEM+10% FBS as specified and then added to 6,000 Huh 7.5 cells/well, plated the previous day in poly-D-lysine coated 96-well plates. Cells were incubated for 6 hours before chlorpromazine was removed and DMEM+10% FBS was added. Cell viability was determined 6 and 48 hours post-treatment using the CellTiter 96® AQueous One Solution Cell Proliferation Assay kit. The % viability was calculated by relating absorbance at 490 nm determined for chlorpromazine treated cultures to the mean absorbance of at least three replicate untreated cultures.

Huh7.5 cells [3] = experiment: Supernatant infectivity titration (FFU assay) after transfection, infection or serial passage, Example 2; format: cell-based, Human; details: both kinetics experiments (MOIs of 0.003 and 0.0003)
Experimental: For transfection of Huh7.5 cells, 350,000 cells/well were seeded in 6-well plates (Nunc) and incubated for 24 hours. Plasmids (10 μg) were linearized by over-night digestion with XbaI (New England Biolabs). Linearized plasmids were purified using Wizard® SV Gel and PCR Clean-Up System (Promega). In vitro transcription was performed using T7 RNA polymerase (Promega) for 2 hours at 37° C. Transfection was performed by incubating 5 μL lipofectamine 2000 (Invitrogen) and the RNA transcripts in 500 μL serum-free Opti-MEM (Gibco/Invitrogen) for 20 minutes at room temperature. RNA-lipofectamine complexes were added to the pre-plated cells and incubated for 16-24 hours. Transfection efficiencies and culture spread were determined by HCV NS5A immunostaining (see below). […]
For infection of Huh7.5 cells in culture flasks, cells were seeded and incubated for 24 hours. When cells were evaluated to be ˜80% confluent, they were infected at a multiplicity of infection (MOI) of either 0.003 or 0.0003 for 3 hours (see Figure legends for details). […] Infection spread was monitored by HCV NS5A immunostaining (see below). […] For serum-free cultures, cells were infected in complete DMEM as described above and spread was monitored by NS5A immunostaining. […]
Culture supernatant infectivity titers were determined as Focus Forming Units (FFU)/mL. […]

Huh7.5 cells [4] = experiment: Infectivity of virus diluted in different media (FIG. 7); format: cell-based, Human; details: virus diluted in AEM prior to infection
Experimental: (A-C) Cells were incubated with virus mixes for 3 hours. After incubation, fresh DMEM+10% FBS was added to all wells. Cells were incubated for 48 hours before they were fixed, stained and the number of single HCV NS5A positive cells per well was determined by automated counting as described in Materials and Methods. Error bars represent SEM of triplicates. For (B), the mean infectivity (HCV NS5A positive cells/well) of triplicate wells of the reference culture (DMEM+10% FBS, black bar) was set to 100%. The number of HCV NS5A positive cells/experimental well was related to this mean to calculate % infectivity relative to the reference culture.

[5] = serial passage by others; cited from earlier work

Row | Molecule | blocking rates [1] | highest concentration not resulting in cytotoxic effects (Huh7.5 cells [2]) | peak infectivity titers (Huh7.5 cells [3]) | infectivity using AEM during the viral infection step (in words) (Huh7.5 cells [4]) | peak infectivity titers of adapted stocks [5]
1 | CN(C)CCCN1c2ccccc2Sc2ccc(Cl)cc21 [chlorpromazine, chlorpromazine hydrochloride] | up to 93% | 10 µg/mL | – | – | –
2 | J6/JFH1 [J6(2a)] | – | – | 4.8 log 10 FFU/mL and 4.9 log 10 FFU/mL | infectivity was also reduced | 8 log 10 TCID50/mL and ~6.5 log 10 TCID50/mL
